Like-named read-outs stand apart in the source and are kept apart here.
Experiments:
[1] = biological target: T1, Ab aggregates of AD brain homogenates (Homo sapiens, UniProt P05067); conditions: [125I]IMPY, values marked as from refs (20), (6), (15); cited from earlier work
T1 construct: to Ab aggregates of AD brain homogenates; from tissue; host or cells: post-mortem grey matter of AD patients, homogenised in PBS

[2] = log of partition coefficient between 1-Octanol and buffer; compounds marked as from ref (20); cited from earlier work
[3] = biological target: T1, Ab aggregates of AD brain homogenates; test: Inhibition of [125I]IMPY binding to Aβ aggregates of AD brain homogenates; parameters: species or system human (AD patients)
Procedure: Postmortem brain tissues were obtained from AD patients at autopsy, and neuropathological diagnosis was confirmed by current criteria (NIA-Reagan Institute Consensus Group, 1997). Homogenates were then prepared from dissected gray matters from AD patients in phosphate buffered saline (PBS, pH 7.4) at the concentration of approximately 100 mg wet tissue/ml (motor-driven glass homogenizer with setting of 6 for 30 sec).
(§1) Binding assays were carried out in 12×75 mm borosilicate glass tubes. […] The mixture was incubated at 37° C. for 2 hr and the bound and the free radioactivity were separated by vacuum filtration through Whatman GF/B filters using a Brandel M-24R cell harvester followed by 2×3 ml washes of PBS at room temperature. Filters containing the bound ^125I ligand were assayed for radioactivity content in a gamma counter (Packard 5000) with 70% counting efficiency.
as §1, with “efficiency. […] The results of inhibition experiments were subjected to nonlinear regression analysis using EBDA by which Ki values were calculated.” for “efficiency.”

[4] = Partition coefficients, 1-octanol/buffer; assay type: physicochemical; conditions: log of partition coefficient between 1-Octanol and buffer (0.1 M phosphate, pH 7.4)
Procedure: Partition coefficients were measured by mixing the [^18F]tracer with 3 g each of 1-octanol and buffer (0.1 M phosphate, pH 7.4) in a test tube. The test tube was vortexed for 3 min at room temperature, followed by centrifugation for 5 min. Two weighed samples (0.5 g each) from the 1-octanol and buffer layers were counted in a well counter. The partition coefficient was determined by calculating the ratio of cpm/g of 1-octanol to that of buffer. Samples from the 1-octanol layer were re-partitioned until consistent partitions of coefficient values were obtained (usually the 3rd or 4th partition). The measurement was done in triplicate and repeated three times.

[5] = Periodic HPLC injection of purified [18F]8b (second peak formation); assay type: physicochemical; conditions: purified tracer injected periodically on HPLC after purification; attributed to E and Z isomers
Procedure: Radiolabeled [^18F]8b was prepared from the mesylate precursor in moderate radiochemical yield (23%) but unfortunately could not be prepared in good radiochemical purity. The formation of a second peak was evident within minutes of labeling. […] They attribute the formation of a second peak to the facile formation of E and Z isomers (30).
[^18F]8b from precursor 11: (HPLC conditions: Phenomenex Gemini C18 semi-prep column [(5.0×250 mm, 5 μm); Acetonitrile/water 60/40; flow rate 3 mL/min)
Retention time of ^18F-labeled product was 28.0 min., well separated from the major hydrolysis by-product (Rt=11.8 min.). The product was isolated in 23% radiochemical yield (decay corrected) and greater than 98% radiochemical purity. Purified [^18F]8b was injected periodically after purification. Formation of a second peak increased to 50% of the parent compound.

[6] = 1-octanol/buffer, read-out: logP

T1 sequence (P05067 672-713 limits assumed): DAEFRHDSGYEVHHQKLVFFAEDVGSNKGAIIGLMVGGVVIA

Compound | Ki [3] | logP [4, 6] | further results
CNc1ccc(/C=C/c2nc3ccc(OCCF)cc3o2)cc1 [BF-168, reference compound] | – | – | Ki [1]: 6.4 nM
CNc1ccc(/C=C/c2ccc(OCCOCCF)cc2)cc1 [Compound 1a] | – | – | logP [2]: 2.53; Ki [1]: 2.9 ± 0.2 nM
CNc1ccc(/C=C/c2ccc(OCCOCCOCCF)cc2)cc1 [Compound 1b] | – | – | logP [2]: 2.41; Ki [1]: 6.7 ± 0.3 nM
CNc1ccc(/C=C/c2ccc(OCCOCCOCCOCCF)cc2)cc1 [Compound 1c] | – | – | logP [2]: 2.05; Ki [1]: 4.4 ± 0.8 nM
CNc1ccc(/C=C/c2ccc(OCCOCCOCCOCCOCCF)cc2)cc1 [Compound 1d] | – | – | logP [2]: 2.27; Ki [1]: 6.8 ± 0.8 nM
CNc1ccc(-c2nc3ccc(OCCOCCF)cc3s2)cc1 [Compound 5a, 2-[4′-(methylamino)phenyl]-6-[2-(2-fluoroethoxy)-ethoxy]benzothiazole] | 2.2 ± 0.5 nM | 3.04 | –
CNc1ccc(-c2nc3ccc(OCCOCCOCCF)cc3s2)cc1 [Compound 5b, 2-[4′-(methylamino)phenyl]-6-{2-[2-(2-fluoroethoxy)-ethoxy]ethoxy}benzothiazole] | 3.8 ± 0.5 nM | 3.04 | –
CNc1ccc(-c2nc3ccc(OCCOCCOCCOCCOCCOCCF)cc3s2)cc1 [Compound 5c, 2-[4′-(methylamino)phenyl]-6-{2-[2-(2-{2-[2-(2-fluoroethoxy)-ethoxy]ethoxy}ethoxy)ethoxy]ethoxy}benzothiazole] | 4.7 ± 0.9 nM | 2.99 | –
CN(C)c1ccc(-c2cn3cc(I)ccc3n2)cc1 [IMPY, 6-iodo-2-(4′-dimethylamino)phenyl-imidazo[1,2-a]pyridine, reference compound] | – | 2.19 | –
CNc1ccc(/C=C/c2ccc(O)cc2)cc1 [SB-13, reference compound] | – | – | logP [4]: 2.36
CN(C)c1ccc(/C=C/c2nc3ccc(OCCOCCOCC[18F])cc3o2)cc1 [[^18F]8b] | – | – | Formation of a second peak, of the parent compound [5]: 50%

Continued, in another order:

Ki [3] | logP [4, 6] | Compound | further results
14.5 ± 5 nM | 2.93 | CN(C)c1ccc(C=Cc2nc3ccc(OCCOCCOCCF)cc3o2)cc1 [Compound 8b, 6-(2-(2-(2-fluoroethoxy)-ethoxy)-ethoxy)-[2-(4-dimethylaminophenyl)-vinyl]-benzooxazol] | –
6 ± 0.6 nM | – | CN(C)c1ccc(C=Cc2nc3ccc(OCCOCCOCCOCCOCCOCCOCCOCCF)cc3o2)cc1 [Compound 8d, 6-(2-(2-(2-(2-(2-(2-(2-(2-fluoroethoxy)-ethoxy)-ethoxy)-ethoxy)-ethoxy)-ethoxy)-ethoxy)-ethoxy)-[2-(4-dimethylaminophenyl)-vinyl]-benzooxazol] | –
16 ± 2 nM | – | CN(C)c1ccc(-c2cn3cc(OCCF)ccc3n2)cc1 [Compound 12a, 6-(2-fluoroethoxy)-2-(4-dimethylamino-)phenyl-imidazo [1,2-a]pyridine] | –
31 ± 9 nM | – | CN(C)c1ccc(-c2cn3cc(OCCOCCF)ccc3n2)cc1 [Compound 12b, 6-(2-fluoroethoxy-ethoxy)-2-(4-dimethylamino-)phenyl-imidazo[1,2-a]pyridine] | –
30 ± 2.5 nM | 2.69 | CN(C)c1ccc(-c2cn3cc(OCCOCCOCCF)ccc3n2)cc1 [Compound 12c, 6-(2-fluoroethoxy-ethoxy-ethoxy)-2-(4-dimethylamino-)phenyl-imidazo[1,2-a]pyridine] | –
96 ± 14 nM | – | CN(C)c1ccc(-c2cn3cc(OCCOCCOCCOCCOCCOCCF)ccc3n2)cc1 [Compound 12d, 6-(2-fluoroethoxy-ethoxy-ethoxy-ethoxy-ethoxy-ethoxy)-2-(4-dimethylamino-)phenyl-imidazo[1,2-a]pyridine] | –
387 ± 12 nM | – | CN(C)c1ccc(-c2cn3cc(OCCOCCOCCOCCOCCOCCOCCOCCF)ccc3n2)cc1 [Compound 12e, 6-(2-fluoroethoxy-ethoxy-ethoxy-ethoxy-ethoxy-ethoxy-ethoxy-ethoxy)-2-(4-dimethylamino-) phenyl-imidazo[1,2-a]pyridine] | –
